Experimental data taken from ChEMBL document CHEMBL4177608, “Design and synthesis of benzimidazole-based Rho kinase inhibitors for the treatment of glaucoma” (Bioorg Med Chem, 2017).
Values after ≈ are worked out from the molar mass of the structure shown.

Columns and labels:
[1] = Antioxidant activity assessed as DPPH free radical scavenging activity at 5 ug/ml after 30 mins by spectrophotometric analysis; format: functional
[2] = Antioxidant activity assessed as DPPH free radical scavenging activity at 25 ug/ml after 30 mins by spectrophotometric analysis; format: functional
Rattus norvegicus [3] = species: Rattus norvegicus; assay: Reduction in intraocular pressure in Wistar rat model of dexamethasone-induced elevated IOP assessed as change in intraocular pressure in contralateral eye at 1 % w/v after 2.5 hrs by tonometry (reference value: 0%); format: ADME, organism-based; parameters: scale not given: the % may be the effect or the level left; conditions: in vivo
Rattus norvegicus [4] = species: Rattus norvegicus; assay: Reduction in intraocular pressure in Wistar rat model of dexamethasone-induced elevated IOP assessed as change in intraocular pressure in contralateral eye at 1 % w/v after 0.5 hrs by tonometry (reference value: 0%); format: ADME, organism-based; parameters: scale not given: the % may be the effect or the level left; conditions: in vivo, topical_or_ocular
Rattus norvegicus [5] = species: Rattus norvegicus; assay: Reduction in intraocular pressure in Wistar rat model of dexamethasone-induced elevated IOP assessed as change in intraocular pressure at 1 % w/v after 2.5 hrs by tonometry (reference value: 0%); format: functional; parameters: scale not given: the % may be the effect or the level left
Rattus norvegicus [6] = species: Rattus norvegicus; assay: Reduction in intraocular pressure in Wistar rat model of dexamethasone-induced elevated IOP assessed as change in intraocular pressure at 1 % w/v after 2 hrs by tonometry (reference value: 0%); format: functional; parameters: scale not given: the % may be the effect or the level left
Rattus norvegicus [7] = species: Rattus norvegicus; assay: Reduction in intraocular pressure in Wistar rat model of dexamethasone-induced elevated IOP assessed as change in intraocular pressure in contralateral eye at 1 % w/v after 1.5 hrs by tonometry (reference value: 0%); format: ADME, organism-based; parameters: scale not given: the % may be the effect or the level left; conditions: in vivo
Rattus norvegicus [8] = species: Rattus norvegicus; assay: Reduction in intraocular pressure in Wistar rat model of dexamethasone-induced elevated IOP assessed as reduction in intraocular pressure at peak effect time at 1 % w/v by tonometry; format: functional; parameters: scale not given: the % may be the effect or the level left
Rattus norvegicus [9] = species: Rattus norvegicus; assay: Reduction in intraocular pressure in Wistar rat model of dexamethasone-induced elevated IOP assessed as change in intraocular pressure at 1 % w/v after 5 hrs by tonometry (reference value: 0%); format: functional; parameters: scale not given: the % may be the effect or the level left
Rattus norvegicus [10] = species: Rattus norvegicus; assay: Reduction in intraocular pressure in Wistar rat model of dexamethasone-induced elevated IOP assessed as change in intraocular pressure at 1 % w/v after 1.5 hrs by tonometry (reference value: 0%); format: functional; parameters: scale not given: the % may be the effect or the level left
[11] = 1-Octanol/water partition coefficient, log P of compound at 2 mg after 24 hrs by spectrophotometry based shake flask method; format: physicochemical
Rattus norvegicus [12] = species: Rattus norvegicus; assay: Reduction in intraocular pressure in Wistar rat model of dexamethasone-induced elevated IOP assessed as change in intraocular pressure at 1 % w/v after 0.5 hrs by tonometry (reference value: 0%); format: functional; parameters: scale not given: the % may be the effect or the level left
[13] = Antioxidant activity assessed as DPPH free radical scavenging activity at 200 ug/ml after 30 mins by spectrophotometric analysis; format: functional
[14] = Antioxidant activity assessed as DPPH free radical scavenging activity after 30 mins by spectrophotometric analysis; format: functional
[15] = Antioxidant activity assessed as DPPH free radical scavenging activity at 50 ug/ml after 30 mins by spectrophotometric analysis; format: functional
Rattus norvegicus [16] = species: Rattus norvegicus; assay: Reduction in intraocular pressure in Wistar rat model of dexamethasone-induced elevated IOP assessed as change in intraocular pressure at 1 % w/v after 4 hrs by tonometry (reference value: 0%); format: functional; parameters: scale not given: the % may be the effect or the level left
[17] = Antioxidant activity assessed as DPPH free radical scavenging activity at 100 ug/ml after 30 mins by spectrophotometric analysis; format: functional
[18] = Antioxidant activity assessed as DPPH free radical scavenging activity at 150 ug/ml after 30 mins by spectrophotometric analysis; format: functional
Rattus norvegicus [19] = species: Rattus norvegicus; assay: Reduction in intraocular pressure in Wistar rat model of dexamethasone-induced elevated IOP assessed as peak effect time for reduction in intraocular pressure at 1 % w/v by tonometry; format: functional, organism-based
Rattus norvegicus [20] = species: Rattus norvegicus; assay: Reduction in intraocular pressure in Wistar rat model of dexamethasone-induced elevated IOP assessed as change in intraocular pressure in contralateral eye at 1 % w/v after 6 hrs by tonometry (reference value: 0%); format: ADME, organism-based; parameters: scale not given: the % may be the effect or the level left; conditions: in vivo
Rattus norvegicus [21] = species: Rattus norvegicus; assay: Reduction in intraocular pressure in Wistar rat model of dexamethasone-induced elevated IOP assessed as change in intraocular pressure at 1 % w/v after 3 hrs by tonometry (reference value: 0%); format: functional; parameters: scale not given: the % may be the effect or the level left
Rattus norvegicus [22] = species: Rattus norvegicus; assay: Reduction in intraocular pressure in Wistar rat model of dexamethasone-induced elevated IOP assessed as onset time for reduction in intraocular pressure at 1 % w/v by tonometry; format: functional
Rattus norvegicus [23] = species: Rattus norvegicus; assay: Reduction in intraocular pressure in Wistar rat model of dexamethasone-induced elevated IOP assessed as change in intraocular pressure in contralateral eye at 1 % w/v after 2 hrs by tonometry (reference value: 0%); format: ADME, organism-based; parameters: scale not given: the % may be the effect or the level left; conditions: in vivo
Rattus norvegicus [24] = species: Rattus norvegicus; assay: Reduction in intraocular pressure in Wistar rat model of dexamethasone-induced elevated IOP assessed as change in intraocular pressure in contralateral eye at 1 % w/v after 5 hrs by tonometry (reference value: 0%); format: ADME, organism-based; parameters: scale not given: the % may be the effect or the level left; conditions: in vivo
Rattus norvegicus [25] = species: Rattus norvegicus; assay: Reduction in intraocular pressure in Wistar rat model of dexamethasone-induced elevated IOP assessed as change in intraocular pressure at 1 % w/v after 1 hr by tonometry (reference value: 0%); format: functional; parameters: scale not given: the % may be the effect or the level left
Rattus norvegicus [26] = species: Rattus norvegicus; assay: Reduction in intraocular pressure in Wistar rat model of dexamethasone-induced elevated IOP assessed as change in intraocular pressure in contralateral eye at 1 % w/v after 1 hr by tonometry (reference value: 0%); format: ADME, organism-based; parameters: scale not given: the % may be the effect or the level left; conditions: in vivo, topical_or_ocular
Rattus norvegicus [27] = species: Rattus norvegicus; assay: Reduction in intraocular pressure in Wistar rat model of dexamethasone-induced elevated IOP assessed as change in intraocular pressure in contralateral eye at 1 % w/v after 4 hrs by tonometry (reference value: 0%); format: ADME, organism-based; parameters: scale not given: the % may be the effect or the level left; conditions: in vivo
Rattus norvegicus [28] = species: Rattus norvegicus; assay: Reduction in intraocular pressure in Wistar rat model of dexamethasone-induced elevated IOP assessed as change in intraocular pressure in contralateral eye at 1 % w/v after 3 hrs by tonometry (reference value: 0%); format: ADME, organism-based; parameters: scale not given: the % may be the effect or the level left; conditions: in vivo
Rattus norvegicus [29] = species: Rattus norvegicus; assay: Reduction in intraocular pressure in Wistar rat model of dexamethasone-induced elevated IOP assessed as change in intraocular pressure at 1 % w/v after 6 hrs by tonometry (reference value: 0%); format: functional; parameters: scale not given: the % may be the effect or the level left

SMILES	Activity [1] [%]	Activity [2] [%]	Activity (Rattus norvegicus [3]) [%]	Activity (Rattus norvegicus [4]) [%]	Activity (Rattus norvegicus [5]) [%]	Activity (Rattus norvegicus [6]) [%]	Activity (Rattus norvegicus [7]) [%]	Activity (Rattus norvegicus [8]) [%]	Activity (Rattus norvegicus [9]) [%]	Activity (Rattus norvegicus [10]) [%]	logP at 24 h [11]	Activity (Rattus norvegicus [12]) [%]	Activity [13] [%]	IC50 [14] [µg/mL]	Activity [15] [%]	Activity (Rattus norvegicus [16]) [%]	Activity [17] [%]	Activity [18] [%]	Tmax (Rattus norvegicus [19]) [h]	Activity (Rattus norvegicus [20]) [%]	further results
CN1CCN(CC(=O)Nc2nc3ccccc3[nH]2)CC1	11	19.9	6.57	1.08	13.57	12.97	4	44.68	1.35	11.95	1.67	5.47	61.6	137.54 (≈ 503 µM)	33.5	4.45	45	54.3	2.5	0	Activity (Rattus norvegicus [21]): 10.3%; Time (Rattus norvegicus [22]): 0.5 h; Activity (Rattus norvegicus [23]): 5.75%; Activity (Rattus norvegicus [24]): 0%; Activity (Rattus norvegicus [25]): 9.77%; Activity (Rattus norvegicus [26]): 2.08%; Activity (Rattus norvegicus [27]): 0.55%; Activity (Rattus norvegicus [28]): 2.15%; Activity (Rattus norvegicus [29]): 0.3%
O=C(CN1CCN(c2ccccc2F)CC1)Nc1nc2ccccc2[nH]1	11.6	18.8	1.27	0.9	13.5	12.47	3.2	46.61	0.95	9.77	0.94	2.82	70.6	121.33 (≈ 343 µM)	37.4	7.52	47.7	56.6	2.5	0	Activity (Rattus norvegicus [21]): 11.7%; Time (Rattus norvegicus [22]): 0.5 h; Activity (Rattus norvegicus [23]): 4.07%; Activity (Rattus norvegicus [24]): 0%; Activity (Rattus norvegicus [25]): 6.5%; Activity (Rattus norvegicus [26]): 2.02%; Activity (Rattus norvegicus [27]): 0%; Activity (Rattus norvegicus [28]): 0.87%; Activity (Rattus norvegicus [29]): 0.17%
O=C(CN1CCN(C(=O)c2ccco2)CC1)Nc1nc2ccccc2[nH]1	14.5	23.4	4.15	0.4	14.92	11.1	2.03	48.33	4.47	8.8	2.02	3.9	71	116.48 (≈ 330 µM)	35.9	6.6	49	59	2	0	Activity (Rattus norvegicus [21]): 8.63%; Time (Rattus norvegicus [22]): 0.5 h; Activity (Rattus norvegicus [23]): 3.1%; Activity (Rattus norvegicus [24]): 0%; Activity (Rattus norvegicus [25]): 4.6%; Activity (Rattus norvegicus [26]): 1.6%; Activity (Rattus norvegicus [27]): 0.8%; Activity (Rattus norvegicus [28]): 2.3%; Activity (Rattus norvegicus [29]): 1.27%
O=C(CN1CCN(c2ccccc2)CC1)Nc1nc2ccccc2[nH]1	4.62	11.5	5.65	1.97	13.5	11	4.12	45.73	1.33	7.75	1.29	2.55	62.1	165.52 (≈ 493 µM)	24.1	7.77	32.2	40.6	2.5	0	Activity (Rattus norvegicus [21]): 12.18%; Time (Rattus norvegicus [22]): 0.5 h; Activity (Rattus norvegicus [23]): 5%; Activity (Rattus norvegicus [24]): 0%; Activity (Rattus norvegicus [25]): 4%; Activity (Rattus norvegicus [26]): 3.25%; Activity (Rattus norvegicus [27]): 1.55%; Activity (Rattus norvegicus [28]): 3.6%; Activity (Rattus norvegicus [29]): 0.27%
